Patent US8778941B2, “TRPM8 antagonists and their use in treatments” (AMGEN Inc., priority 2011, dated 2014)

What follows are compounds tested against T1, human TRPM8 (Homo sapiens, UniProt Q7Z2W7) (assay: Luminescence readout assay for measuring intracellular calcium (aequorin), hTRPM8 antagonism). Conditions: CHO cell line expressing human TRPM8 and aequorin; activation by icilin, L-menthol or cold buffer (table does not say which).
T1 construct: expressed in transfected cells; host or cells: Chinese hamster ovary (CHO) cells, T-REx tetracycline-inducible expression system (Invitrogen), co-transfected with pcDNA3.1 jellyfish aequorin
Format: cell-based

T1 sequence (Q7Z2W7 whole entry): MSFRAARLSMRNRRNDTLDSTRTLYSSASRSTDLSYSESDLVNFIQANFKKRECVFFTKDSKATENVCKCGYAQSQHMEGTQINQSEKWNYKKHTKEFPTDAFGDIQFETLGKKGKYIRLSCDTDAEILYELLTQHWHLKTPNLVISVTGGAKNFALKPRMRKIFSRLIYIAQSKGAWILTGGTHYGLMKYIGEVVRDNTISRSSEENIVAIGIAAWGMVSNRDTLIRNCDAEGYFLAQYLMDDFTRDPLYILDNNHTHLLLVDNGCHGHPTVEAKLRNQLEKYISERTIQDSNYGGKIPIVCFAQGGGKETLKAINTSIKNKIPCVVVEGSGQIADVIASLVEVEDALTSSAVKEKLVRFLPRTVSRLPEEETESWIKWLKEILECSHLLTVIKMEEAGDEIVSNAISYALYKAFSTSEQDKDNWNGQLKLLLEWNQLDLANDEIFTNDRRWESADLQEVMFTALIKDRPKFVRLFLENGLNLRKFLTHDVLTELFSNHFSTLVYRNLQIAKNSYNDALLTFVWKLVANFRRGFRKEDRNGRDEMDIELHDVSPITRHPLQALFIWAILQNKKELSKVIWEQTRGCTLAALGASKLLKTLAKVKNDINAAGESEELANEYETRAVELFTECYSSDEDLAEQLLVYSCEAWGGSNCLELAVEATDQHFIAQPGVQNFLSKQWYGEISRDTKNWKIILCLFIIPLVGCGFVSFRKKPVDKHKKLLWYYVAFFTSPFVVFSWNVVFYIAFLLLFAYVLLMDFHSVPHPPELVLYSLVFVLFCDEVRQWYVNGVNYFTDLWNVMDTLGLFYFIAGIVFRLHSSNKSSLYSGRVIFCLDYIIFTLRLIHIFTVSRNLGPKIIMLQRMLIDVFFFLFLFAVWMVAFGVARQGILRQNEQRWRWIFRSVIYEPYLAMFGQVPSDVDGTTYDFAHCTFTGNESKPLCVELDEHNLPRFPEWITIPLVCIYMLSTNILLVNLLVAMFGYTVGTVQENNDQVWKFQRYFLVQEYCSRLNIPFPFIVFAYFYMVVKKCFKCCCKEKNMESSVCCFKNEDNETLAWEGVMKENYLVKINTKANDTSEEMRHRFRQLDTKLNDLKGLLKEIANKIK

Row | IC50 [µM] | Compound
1 | 1.55 | CCOC(=O)c1ccc(NC(=O)N[C@@H](c2ccc(C(F)(F)F)cc2)c2ncccc2C(F)(F)F)cc1 [Example 187, (S)-ethyl 4-(3-((4-(trifluoro-methyl)phenyl) (3-(trifluoro-methyl)pyridin-2-yl)methyl)ureido)benzoate (2,2,2-trifluoro-acetate)]
2 | 5.65 | O=C(NCC1CCS(=O)(=O)C1)N[C@@H](c1ccc(C(F)(F)F)cc1)c1ncccc1C(F)(F)F (stereo partly drawn) [Example 64, 1-((3- Sulfonylcyclopentyl)-methyl)-3-((S)-(4-(trifluoro-methyl)-phenyl)(3-(trifluoro-methyl)-pyridin-2-yl)-methyl)urea (2,2,2-trifluoro-acetate)]
3 | 0.884 | COC(=O)[C@@H](NC(=O)N[C@@H](c1ccc(C(F)(F)F)cc1)c1ncccc1C(F)(F)F)C(C)C [Example 96, (S)-methyl 3-(methyl-2-(3-((S)-(4-(trifluoro-methyl)-phenyl)(3-(trifluoro-methyl)-pyridin-2-yl)-methyl)-ureido)-butanoate (2,2,2-trifluoro-acetate)]
4 | 0.248 | O=C(Nc1cccnc1)N[C@@H](c1ccc(Cl)cc1)c1ncccc1C(F)(F)F [Example 26, (S)-1-((4-chlorophenyl)-(3-(trifluoro-methyl)-pyridin-2-yl)-methyl)-3-(pyridin-3-yl)-urea]
5 | 0.05 | CS(=O)(=O)c1cccc(NC(=O)N[C@@H](c2ccc(C(F)(F)F)cc2)c2ncccc2C(F)(F)F)c1 [Example 53, (S)-1-(3-(methylsulfonyl)phenyl)-3-((4-(trifluoro-methyl)-phenyl)(3-(trifluoro-methyl)-pyridin-2-yl)-methyl)urea]
6 | 0.142 | O=C(Nc1ccccc1Cl)N[C@@H](c1ccc(C(F)(F)F)cc1)c1ncccc1C(F)(F)F [Example 181, (S)-1-(2-chlorophenyl)-3-((4-(trifluoro-methyl)phenyl) (3-(trifluoro-methyl)pyridin-2-yl)methyl)urea (2,2,2-trifluoro-acetate)]
7 | 0.127 | O=C(NCCCc1ccccc1)N[C@@H](c1ccc(C(F)(F)F)cc1)c1ncccc1C(F)(F)F [Example 34, (S)-1-(3-phenylpropyl)-3-((4-(trifluoro-methyl)-phenyl)(3-(trifluoro-methyl)-pyridin-2-yl)-methyl)urea (2,2,2-trifluoro-acetate)]
8 | 0.713 | Cc1cccc(C(C)C)c1NC(=O)N[C@@H](c1ccc(C(F)(F)F)cc1)c1ncccc1C(F)(F)F [Example 92, (S)-1-(2-isopropyl-6-methylphenyl)-3-((4-(trifluoro-methyl)-phenyl)(3-(trifluoro-methyl)-pyridin-2-yl)-methyl)urea (2,2,2-trifluoro-acetate)]
9 | 0.474 | Cc1ccccc1NC(=O)N[C@@H](c1ccc(C(F)(F)F)cc1)c1ncccc1C(F)(F)F [Example 145, (S)-1-(o-tolyl)-3-((4-(trifluoro-methyl)-phenyl)(3-(trifluoro-methyl)-pyridin-2-yl)-methyl)urea (2,2,2-trifluoro-acetate)]
10 | 0.781 | C[C@@H](NC(=O)N[C@@H](c1ccc(C(F)(F)F)cc1)c1ncccc1C(F)(F)F)c1ccccc1 [Example 70, 1-((R)-1-phenylethyl)-3-((S)-(4-(trifluoro-methyl)-phenyl)(3-(trifluoro-methyl)-pyridin-2-yl)-methyl)urea (2,2,2-trifluoro-acetate)]
11 | 0.399 | COc1ccc([C@H](C)NC(=O)N[C@@H](c2ccc(C(F)(F)F)cc2)c2ncccc2C(F)(F)F)cc1 [Example 80, 1-((S)-1-(4-methoxy-phenyl)ethyl)-3-((S)-(4-(trifluoro-methyl)-phenyl)(3-(trifluoro-methyl)-pyridin-2-yl)-methyl)urea (2,2,2-trifluoro-acetate)]
12 | 0.67 | CCc1cccc(C(C)C)c1NC(=O)N[C@@H](c1ccc(C(F)(F)F)cc1)c1ncccc1C(F)(F)F [Example 91, (S)-1-(2-ethyl-6-isopropylphenyl)-3-((4-(trifluoro-methyl)-phenyl)(3-(trifluoro-methyl)-pyridin-2-yl)-methyl)urea (2,2,2-trifluoro-acetate)]
13 | 0.123 | C[C@H](NC(=O)N[C@@H](c1ccc(C(F)(F)F)cc1)c1ncccc1C(F)(F)F)c1ccccc1 [Example 107, 1-((S)-1-phenylethyl)-3-((S)-(4-(trifluoro-methyl)-phenyl)(3-(trifluoro-methyl)-pyridin-2-yl)-methyl)urea (2,2,2-trifluoro-acetate)]
14 | 0.088 | O=C(Nc1cccnc1)N[C@@H](c1cnc2c(Cl)cccc2c1)c1ncccc1C(F)(F)F [Example 12, (S)-1-((8-chloroquinolin-3-yl)(3-(trifluoro-methyl)-pyridin-2-yl)-methyl)-3-(pyridin-3-yl)-urea]
15 | 1.59 | CCOc1ccccc1CNC(=O)N[C@@H](c1ccc(C(F)(F)F)cc1)c1ncccc1C(F)(F)F [Example 133, (S)-1-(2-ethoxybenzyl)-3-((4-(trifluoro-methyl)-phenyl)(3-(trifluoro-methyl)-pyridin-2-yl)-methyl)urea (2,2,2-trifluoro-acetate)]
16 | 5.71 | CC(C)(C)c1ccccc1NC(=O)N[C@@H](c1ccc(C(F)(F)F)cc1)c1ncccc1C(F)(F)F [Example 71, (S)-1-(tert-butylphenyl)-3-((4-(trifluoro-methyl)-phenyl)(3-(trifluoro-methyl)-pyridin-2-yl)-methyl)urea (2,2,2-trifluoro-acetate)]
17 | 0.294 | O=C(Nc1cc(Cl)nc(Cl)c1)N[C@@H](c1ccc(C(F)(F)F)cc1)c1ncccc1C(F)(F)F [Example 76, (S)-1-(2,6-dichloropyridin-4-yl)-3-((4-(trifluoro-methyl)-phenyl)(3-(trifluoro-methyl)-pyridin-2-yl)-methyl)urea (2,2,2-trifluoro-acetate)]
18 | 0.561 | O=C(NCc1ccc(Br)cc1)N[C@@H](c1ccc(C(F)(F)F)cc1)c1ncccc1C(F)(F)F [Example 125, (S)-1-(4-bromobenzyl)-3-((4-(trifluoro-methyl)-phenyl)(3-(trifluoro-methyl)-pyridin-2-yl)-methyl)urea (2,2,2-trifluoro-acetate)]
19 | 0.23 | COc1ccc([C@H](NC(=O)Nc2cccnc2)c2ncccc2C(F)(F)F)cc1 [Example 2, (S)-1-((4-methoxy-phenyl)(3-(trifluoro-methyl)-pyridin-2-yl)-methyl)-3-(pyridin-3-yl)-urea]
20 | 0.673 | O=C(NCCc1c(Cl)cccc1Cl)N[C@@H](c1ccc(C(F)(F)F)cc1)c1ncccc1C(F)(F)F [Example 132, (S)-1-(2,6-dichlorophen-ethyl)-3-((4-(trifluoro-methyl)-phenyl)(3-(trifluoro-methyl)-pyridin-2-yl)-methyl)urea (2,2,2-trifluoro-acetate)]
21 | 0.56 | COc1ccc(C)cc1NC(=O)N[C@@H](c1ccc(C(F)(F)F)cc1)c1ncccc1C(F)(F)F [Example 183, (S)-1-(2-methoxy-5-methylphenyl)-3-((4-(trifluoro-methyl)phenyl) (3-(trifluoro-methyl)pyridin-2-yl)methyl)urea (2,2,2-trifluoro-acetate)]
22 | 0.491 | Cn1cc(NC(=O)N[C@@H](c2ccc(C(F)(F)F)cc2)c2ncccc2F)ccc1=O [Example 162, (S)-1-((3-fluoropyridin-2-yl)(4-(trifluoro-methyl)-phenyl)-methyl)-3-(1-methyl-6-oxo-1,6-dihydropyridin-3-yl)urea]
23 | 0.235 | Cc1nc(-c2cccc(NC(=O)N[C@@H](c3ccc(C(F)(F)F)cc3)c3ncccc3C(F)(F)F)c2)no1 [Example 77, (S)-1-(3-(5-methyl-1,2,4-oxadiazol-3-yl)phenyl)-3-((4-(trifluoro-methyl)-phenyl)(3-(trifluoro-methyl)-pyridin-2-yl)-methyl)urea (2,2,2-trifluoro-acetate)]
24 | 0.028 | C=CCc1cccnc1[C@@H](NC(=O)N[C@@H](C)C(F)(F)F)c1ccc(C(F)(F)F)cc1 [Example 158, 1-((S)-(3-allylpyridin-2-yl)(4-(trifluoro-methyl)-phenyl)-methyl)-3-((S)-1,1,1-trifluoro-propan-2-yl)-urea]
25 | 0.051 | O=C(Nc1cccnc1)N[C@@H](c1ccc(Cl)c(Cl)c1)c1ncccc1C(F)(F)F [Example 13, (S)-1-((3,4-dichlorophenyl) (3-(trifluoro-methyl)-pyridin-2-yl)-methyl)-3-(pyridin-3-yl)-urea]
26 | 0.07 | C[C@@H](NC(=O)N[C@@H](c1ccc(C(F)(F)F)c(F)c1)c1ncccc1C(F)(F)F)C(F)(F)F [Example 152, 1-((S)-(3-fluoro-4-(trifluoro-methyl)-phenyl)(3-(trifluoro-methyl)-pyridin-2-yl)-methyl)-3-((R)-1,1,1-trifluoro-propan-2-yl)-urea (2,2,2-trifluoro-acetate)]
27 | 0.559 | COc1cccc(CCNC(=O)N[C@@H](c2ccc(C(F)(F)F)cc2)c2ncccc2C(F)(F)F)c1OC [Example 82, (S)-1-(2,3-dimethoxy-phenethyl)-3-((4-(trifluoro-methyl)-phenyl)(3-(trifluoro-methyl)-pyridin-2-yl)-methyl)urea (2,2,2-trifluoro-acetate)]
28 | 0.178 | O=C(Nc1cccnc1)NC(c1ccc(F)c(C(F)(F)F)c1)c1ncccc1C(F)(F)F (stereo not drawn) [Example 21, 1-((4-fluoro-3-(trifluoro-methyl)-phenyl)(3-(trifluoro-methyl)-pyridin-2-yl)-methyl)-3-(pyridin-3-yl)-urea (2,2,2-trifluoro-acetate)]
29 | 0.145 | COc1ccc([C@H](NC(=O)Nc2cccnc2)c2ncccc2C(F)(F)F)cc1F [Example 5, (S)-1-((3-fluoro-4-methoxy-phenyl)(3-(trifluoro-methyl)-pyridin-2-yl)-methyl)-3-(pyridin-3-yl)-urea]
30 | 0.866 | O=C(Nc1c(Br)cc(F)cc1Br)N[C@@H](c1ccc(C(F)(F)F)cc1)c1ncccc1C(F)(F)F [Example 63, (S)-1-(2,6-dibromo-4-fluorophenyl)-3-((4-(trifluoro-methyl)-phenyl)(3-(trifluoro-methyl)-pyridin-2-yl)-methyl)urea (2,2,2-trifluoro-acetate)]
